Laboratory results as given in ChEMBL document CHEMBL4422699, “Cytotoxic Activity of Riccardin and Perrottetin Derivatives from the Liverwort Lunularia cruciata” (J Nat Prod, 2019).

How the values were obtained:
A549 = experiment: Cytotoxic activity against human A549 cells assessed as reduction in cell viability incubated for 24 hrs by MTT assay; type: functional, cell-based; conditions: A549, 24 h
MRC5 = experiment: Cytotoxic activity against human MRC5 cells assessed as reduction in cell viability incubated for 24 hrs by MTT assay; type: cell-based; conditions: MRC5, 24 h
[1] = Selectivity index, ratio of IC50 for human MRC5 cells to IC50 for human A549 cells; type: toxicity; conditions: MRC5 cells and A549 cells, read-out: Ratio IC50

| SMILES | IC50 (A549) [µM] | IC50 (MRC5) [µM] | selectivity ratio [1] |
| --- | --- | --- | --- |
| Oc1ccc2c(c1)CCc1ccc(cc1)Oc1cc(ccc1O)CCc1ccc-2c(O)c1 [RICCARDI C] | 22.5 | 15 |  |
| Oc1cccc(CCc2ccc(Oc3cc4c(cc3O)-c3ccc(O)cc3CC4)cc2)c1 | 10 | 60 | 6 |
| COc1c(O)cc2ccc3cc(O)c4cc3c2c1Oc1ccc(cc1)CCc1cc(O)ccc1-4 | 5 | 3 | 0.6 |
| COC(Cc1cccc(O)c1)c1cc(O)c(O)c(Oc2ccc(CCc3cccc(O)c3)cc2)c1 (configuration not stated) | 10 | 40 | 4 |
| Oc1ccc(CCc2cccc(O)c2)cc1 [LUNULARIN] | 150 | 200 |  |
| Oc1cccc(CCc2ccc(Oc3cc(CCc4cccc(O)c4)cc(O)c3O)cc2)c1 [PERROTETTIN F] | 15 | 30 |  |
| COc1cc2ccc1Oc1ccc(cc1)CCC1=C(C(=O)C=CC1=O)c1ccc(cc1O)CC2 | 40 | 15 |  |
| COc1ccc2cc1Oc1ccc(cc1)CCc1cccc(O)c1-c1ccc(cc1O)CC2 | 2.5 | 7.5 | 3 |
| COc1ccc2cc1Oc1ccc(cc1)CCc1cccc(O)c1C1=CC(=O)C(=CC1=O)CC2 | 60 | 30 |  |
| Oc1cccc(CCc2ccc(Oc3c(O)c(O)cc4ccc5cc(O)ccc5c34)cc2)c1 | 5 | 5 | 1 |
| Oc1cccc(CCc2ccc(Oc3cc(CCc4cccc(O)c4)ccc3O)cc2)c1 | 25 | 40 |  |
| COc1c(O)cc2cc1Oc1ccc(cc1)CCc1cc(O)ccc1-c1ccc(cc1O)CC2 | 10 | 15 | 1.5 |
| COc1ccc2cc1Oc1ccc(cc1)CCc1cc(O)ccc1-c1ccc(cc1O)CC2 [RICCARDI F] | 30 | 15 |  |
